In patent publication US20080249130A1, “Gut microsomal triglyceride transport protein inhibitors” (Sirtris Pharmaceuticals, Inc., priority 2007, published 2008):
Where two headings read alike, the source gives them in different places.

System: secretion of ApoB by HepG2 cells
Experiment: ApoB secretion inhibition assay in HepG2 cells (ApoB ELISA)
Format: cell-based, human
Conditions: read-out: IC50 ApoB Assay
Method: The ability of the compounds of the present invention to inhibit the secretion of ApoB can be determined using the following cell-based assay, which measures the secretion of ApoB by HepG2 cells. ApoB has two possible metabolic fates: entrance into the lipoprotein assembly pathway within the lumen of the endoplasmic reticulum (ER), or degradation in the cytoplasm by the ubiquitin-dependent proteasome. The destiny of ApoB is determined by the relative availability of individual lipids, which is controlled by MTP (Davis, Biochim. Biophys. Acta, 1999, 1440, 1-31).
HepG2 cells (ATCC, HB-8065) are seeded in 96-well plates in DMEM with 10% FBS+pen/strep at a density of 1×10^5 cells/well (100 μl /well). Twenty-four hours after seeding, the plate is aspirated and the media changed to DMEM with 1% BSA and pen/strep, and the cells are serum-starved for 24 hours. After 24 hour serum-starvation, the plate is aspirated again and the cells are then treated for 24 hours with or without compound in DMEM with 1% BSA, 0.3 mM OA (OA complexed to BSA at a 2:1 ratio) and pen/strep. The final concentration of DMSO in the assay (from compound and control) is 0.1%. After 24 hour treatment, conditioned media is collected in an empty 96-well plate.
Cellular viability is measured using the cell permeable dye, AlamarBlue™. This dye undergoes electron reduction in viable cells but not dead cells. The reduced dye product gives a fluorescent signal which can be monitored with a fluorescence plate reader (excitation 545 nm and emission 575 nm). The amount of fluorescence generated in a given well is proportional to the number of viable cells. After collection, the 96-well plate is re-fed with 100 μl media (DMEM with 10% FBS) and 10 μl Alamar Blue™ per well, incubated for 2 hours and then read in a fluorescence plate reader.
ApoB secretion from HepG2 cells is quantitated by testing the conditioned media at […] using an ApoB ELISA kit (ALerCHEK) according to the manufacturer's instructions. The ELISA assay for ApoB is performed as follows: a polyclonal antibody against human ApoB (Chemicon) is diluted 1:1000 in carbonate-bicarbonate buffer and 100 μl are added to each well of a 96-well plate (NUNC). After 5 hours incubation at room temperature, the antibody solution is removed and wells are washed four times with PBS/0.05% TweenD 20 (Cayman Chemical Co.). Non-specific sites on the plastic plate are blocked by incubating wells for 1 to 1.5 hours in a solution of 0.5% BSA and 0.1% TweenD 20 made in PBS. One hundred microliters of a 1:20 dilution of growth medium from the HepG2 cells (made in 0.004% TweenD 20/1% BSA in PBS) is added to each well and incubated for 3 hours at room temperature. Wells are aspirated and washed four times (0.05% TweenD 20 in PBS) prior to adding 100 μl of a 1:1000 dilution (5 μg/ml) of the secondary antibody, mouse anti-human ApoB (Chemicon). After 2 hours incubation at room temperature, this solution is aspirated and the wells are again washed 4 times as above. One hundred microliters of peroxidase-conjugated affinity purified goat anti-mouse IgG (H+L) (Jackson ImmunoResearch Laboratories) (1:10,000 dilution in PBS/1% BSA/0.1% TweenD 20) is then added to each well and incubated for 1 hour at room temperature. After aspirating, the wells are washed 4 times as above and 50 μl of 1-step Ultra TMB ELISA reagent (Pierce) is added to each well and incubated for 5 minutes. The reaction is stopped by the addition of 50 μl of 2 NH2SO4 and absorbance of each well is read at 450 nm.

[1] = Homo sapiens, HepG2, Table 6, assay of Example 2

IC50 [1] [nM]	IC50 (Table 6, assay of Example 2) [nM]	SMILES
34.8		CC(C)(C)c1ccc(-c2ccccc2C(=O)Nc2ccc3nc(C(=O)N[C@@H](C(=O)N4CCCC4)c4ccccc4)sc3c2)cc1 [Compound 34]
4180		CN(C(=O)[C@@H](NC(=O)c1nc2ccc(NC(=O)c3ccccc3-c3cn4ccsc4n3)cc2s1)c1ccccc1)C(C)(C)C [Compound 53]
1.2		Cc1cccc(C(=O)NC23CCC(C(=O)N[C@H](C(=O)N(C)Cc4ccc(F)cc4)c4ccccc4)(CC2)CC3)c1-c1ccc(C(C)(C)C)cc1 [Compound 108]
35.3		CN(Cc1ccc(F)cc1)C(=O)[C@@H](NC(=O)c1ccc(-c2csc(NC(=O)c3ccccc3-c3ccc(C(C)(C)C)cc3)n2)cc1)c1ccccc1 [Compound 37]
339		Cc1cccc(C(=O)Nc2nc(-c3ccc(C(=O)N[C@H](C(=O)N(C)CC(C)C)c4ccccc4)cc3)cs2)c1-c1ccc(C(C)(C)C)cc1 [Compound 87]
60.3		CC(C)(C)c1ccc(-c2ccccc2C(=O)NCC23CCC(C(=O)N[C@H](C(=O)NCC4CC4)c4ccccc4)(CC2)CC3)cc1 [Compound 49]
110		COc1cccc(C(=O)NC23CCC(C(=O)N[C@H](C(=O)N(C)Cc4ccc(F)cc4)c4ccccc4)(CC2)CC3)c1-c1ccc(C(C)C)cc1 [Compound 111]
98.2		CC(C)(C)c1ccc(-c2ccccc2C(=O)NCC23CCC(C(=O)N[C@H](C(=O)N4CCCCC4)c4ccccc4)(CC2)CC3)cc1 [Compound 45]
5.2	4.5	Cc1cccc(C(=O)NCC23CCC(C(=O)N[C@H](C(=O)N4CCCC4)c4ccccc4)(CC2)CC3)c1-c1ccc(C(C)(C)C)cc1 [Compound 65]
49.7		Cc1cccc(C(=O)Nc2nc(-c3ccc(C(=O)N[C@H](C(=O)N(C)C(C)C)c4ccccc4)cc3)cs2)c1-c1ccc(C(C)C)cc1 [Compound 98]
422		CC(C)CN(C)C(=O)[C@@H](NC(=O)c1ccc(-c2csc(NC(=O)c3ccccc3-c3ccc(C(C)(C)C)cc3)n2)cc1)c1ccccc1 [Compound 91]
21.8		Cc1cccc(C(=O)NCC23CCC(C(=O)N[C@H](C(=O)N(C)CC(C)C)c4ccccc4)(CC2)CC3)c1-c1ccc(C(C)(C)C)cc1 [Compound 72]
272		CC(C)(C)c1ccc(-c2ccccc2C(=O)Nc2ccc(-c3csc(C(=O)N[C@H](C(=O)N4CCCC4)c4ccccc4)n3)cc2)cc1 [Compound 57, (S)-4-(4-(4′-tert-butylbiphenyl-2-ylcarboxamido)phenyl)-N-(2-oxo-1-phenyl-2-(pyrrolidin-1-yl)ethyl)thiazole-2-carboxamide]
115		Cc1cccc(C(=O)Nc2nc(-c3ccc(C(=O)N[C@H](C(=O)N(C)CC(C)C)c4ccccc4)cc3)cs2)c1-c1ccc(C(C)C)cc1 [Compound 90]
4200		CN(Cc1ccc(F)cc1)C(=O)[C@@H](NC(=O)c1nc2ccc(NC(=O)c3ccccc3-n3cnnn3)cc2s1)c1ccccc1 [Compound 29]
2100		CN(C(=O)[C@@H](NC(=O)c1nc2ccc(NC(=O)c3ccccc3-c3cn4ccsc4n3)cc2s1)c1ccccc1)C1CCCCC1 [Compound 61]
1.6		COc1cccc(C(=O)Nc2ccc3nc(C(=O)N[C@H](C(=O)N(C)Cc4ccc(F)cc4)c4ccccc4)sc3c2)c1-c1ccc(C(F)(F)F)cc1 [Compound 80]
238		CN(Cc1ccc(F)cc1)C(=O)[C@@H](NC(=O)c1cccc(-c2csc(NC(=O)c3ccccc3-c3ccc(C(C)(C)C)cc3)n2)c1)c1ccccc1 [Compound 13]
9.8		CN(Cc1ccc(F)cc1)C(=O)[C@H](NC(=O)c1nc2ccc(NC(=O)c3ccccc3-c3ccc(C(C)(C)C)cc3)cc2s1)c1ccccc1 [Compound 35]

IC50 [1] [nM]	IC50 (Table 6, assay of Example 2) [nM]	SMILES
4.4		Cc1cccc(C(=O)NC23CCC(C(=O)N[C@H](C(=O)N4CCCC4)c4ccccc4)(CC2)CC3)c1-c1ccc(C(C)C)cc1 [Compound 113]
11		Cc1cccc(C(=O)NCC23CCC(C(=O)NC(C(=O)N4CCCC4)c4ccccc4)(CC2)CC3)c1-c1ccc(C(C)C)cc1 (stereo not drawn) [Compound 96]
81.3		CCCN(C)C(=O)[C@@H](NC(=O)c1ccc(-c2csc(NC(=O)c3cccc(C)c3-c3ccc(C(C)(C)C)cc3)n2)cc1)c1ccccc1 [Compound 88]
230		CC(C)(C)c1ccc(-c2ccccc2C(=O)NCC23CCC(C(=O)N[C@H](C(=O)NC4CCCCC4)c4ccccc4)(CC2)CC3)cc1 [Compound 48]
1.7	1.5	Cc1cccc(C(=O)NC23CCC(C(=O)N[C@H](C(=O)N4CCCC4)c4ccccc4)(CC2)CC3)c1-c1ccc(C(C)(C)C)cc1 [Compound 107]
99.3		CCCCN(C)C(=O)[C@@H](NC(=O)C12CCC(NC(=O)c3cccc(OC)c3-c3ccc(C(C)C)cc3)(CC1)CC2)c1ccccc1 [Compound 115]
190		CC(C)(C)c1ccc(-c2ccccc2C(=O)NCC23CCC(C(=O)N[C@H](C(=O)N4CCC(F)(F)C4)c4ccccc4)(CC2)CC3)cc1 [Compound 21]
112		CC(C)(C)c1csc(-c2ccccc2C(=O)NCC23CCC(C(=O)N[C@H](C(=O)N4CCCC4)c4ccccc4)(CC2)CC3)n1 [Compound 100]
872		CN(C(=O)[C@@H](NC(=O)c1nc2ccc(NC(=O)c3ccccc3-c3cn4ccsc4n3)cc2s1)c1ccccc1)C1CCCC1 [Compound 51]
286		O=C(N[C@H](C(=O)NCC1CC1)c1ccccc1)c1nc2ccc(NC(=O)c3ccccc3-c3cn4ccsc4n3)cc2s1 [Compound 62]
59.4		Cc1noc(-c2ccccc2C(=O)Nc2ccc3nc(C(=O)N[C@H](C(=O)N(C)Cc4ccc(F)cc4)c4ccccc4)sc3c2)n1 [Compound 25]
3.5		CC(C)c1ccc(-c2ccccc2C(=O)NC23CCC(C(=O)N[C@H](C(=O)N4CCCC4)c4ccccc4)(CC2)CC3)cc1 [Compound 104]
8.9		Cc1cccc(C(=O)NCC23CCC(C(=O)N[C@H](C(=O)NCC4CC4)c4ccccc4)(CC2)CC3)c1-c1ccc(C(C)(C)C)cc1 [Compound 69]
2.8		COc1cccc(C(=O)Nc2ccc3nc(C(=O)N[C@H](C(=O)N(C)Cc4ccc(F)cc4)c4ccccc4)sc3c2)c1-c1ccc(C(C)C)cc1 [Compound 76]
1610		O=C(N[C@H](C(=O)N1CCCCC1)c1ccccc1)c1nc2ccc(NC(=O)c3ccccc3-c3cn4ccsc4n3)cc2s1 [Compound 44]
197		CC(C)CNC(=O)[C@@H](NC(=O)c1ccc(-c2csc(NC(=O)c3ccccc3-c3ccc(C(C)(C)C)cc3)n2)cc1)c1ccccc1 [Compound 82]
11.7		CCCCN(C)C(=O)[C@@H](NC(=O)C12CCC(NC(=O)c3ccccc3-c3ccc(C(C)(C)C)cc3)(CC1)CC2)c1ccccc1 [Compound 101]
89.7		CC(C)N(C)C(=O)[C@@H](NC(=O)c1ccc(-c2csc(NC(=O)c3ccccc3-c3ccc(C(C)(C)C)cc3)n2)cc1)c1ccccc1 [Compound 93]
